target: ROCK2 (Homo sapiens (Human), UniProt O75116); assay: ROCK assay (LABCHIP 3000 peptide phosphorylation assay); type: biochemical; conditions: 5 μM ATP, 1.5 μM peptide substrate, dose-response
Procedure: The effectiveness of compounds of the present invention as ROCK inhibitors can be determined in a 30 μL assay containing 20 mM HEPES, pH 7.5, 20 mM MgCl2, 0.015% Brij-35, 4 mM DTT, 5 μM ATP and 1.5 μM peptide substrate (FITC-AHA-AKRRRLSSLRA-OH) (SEQ ID No. 1). Compounds were dissolved in DMSO so that the final concentration of DMSO was <2%, and the reaction was initiated with Rho kinase variants. After incubation, the reaction was terminated by the addition of EDTA and the phosphorylated and non-phosphorylated peptides separated using a LABCHIP® 3000 Reader (Caliper Life Sciences). […] Compounds were tested in dose-response format, and the inhibition of kinase activity was calculated at each concentration of compound. The inhibition data were fit using a curve-fitting program to determine the IC50; i.e., the concentration of compound required to inhibit 50% of kinase activity.

Sequence of ROCK2 (O75116 whole entry, species assumed): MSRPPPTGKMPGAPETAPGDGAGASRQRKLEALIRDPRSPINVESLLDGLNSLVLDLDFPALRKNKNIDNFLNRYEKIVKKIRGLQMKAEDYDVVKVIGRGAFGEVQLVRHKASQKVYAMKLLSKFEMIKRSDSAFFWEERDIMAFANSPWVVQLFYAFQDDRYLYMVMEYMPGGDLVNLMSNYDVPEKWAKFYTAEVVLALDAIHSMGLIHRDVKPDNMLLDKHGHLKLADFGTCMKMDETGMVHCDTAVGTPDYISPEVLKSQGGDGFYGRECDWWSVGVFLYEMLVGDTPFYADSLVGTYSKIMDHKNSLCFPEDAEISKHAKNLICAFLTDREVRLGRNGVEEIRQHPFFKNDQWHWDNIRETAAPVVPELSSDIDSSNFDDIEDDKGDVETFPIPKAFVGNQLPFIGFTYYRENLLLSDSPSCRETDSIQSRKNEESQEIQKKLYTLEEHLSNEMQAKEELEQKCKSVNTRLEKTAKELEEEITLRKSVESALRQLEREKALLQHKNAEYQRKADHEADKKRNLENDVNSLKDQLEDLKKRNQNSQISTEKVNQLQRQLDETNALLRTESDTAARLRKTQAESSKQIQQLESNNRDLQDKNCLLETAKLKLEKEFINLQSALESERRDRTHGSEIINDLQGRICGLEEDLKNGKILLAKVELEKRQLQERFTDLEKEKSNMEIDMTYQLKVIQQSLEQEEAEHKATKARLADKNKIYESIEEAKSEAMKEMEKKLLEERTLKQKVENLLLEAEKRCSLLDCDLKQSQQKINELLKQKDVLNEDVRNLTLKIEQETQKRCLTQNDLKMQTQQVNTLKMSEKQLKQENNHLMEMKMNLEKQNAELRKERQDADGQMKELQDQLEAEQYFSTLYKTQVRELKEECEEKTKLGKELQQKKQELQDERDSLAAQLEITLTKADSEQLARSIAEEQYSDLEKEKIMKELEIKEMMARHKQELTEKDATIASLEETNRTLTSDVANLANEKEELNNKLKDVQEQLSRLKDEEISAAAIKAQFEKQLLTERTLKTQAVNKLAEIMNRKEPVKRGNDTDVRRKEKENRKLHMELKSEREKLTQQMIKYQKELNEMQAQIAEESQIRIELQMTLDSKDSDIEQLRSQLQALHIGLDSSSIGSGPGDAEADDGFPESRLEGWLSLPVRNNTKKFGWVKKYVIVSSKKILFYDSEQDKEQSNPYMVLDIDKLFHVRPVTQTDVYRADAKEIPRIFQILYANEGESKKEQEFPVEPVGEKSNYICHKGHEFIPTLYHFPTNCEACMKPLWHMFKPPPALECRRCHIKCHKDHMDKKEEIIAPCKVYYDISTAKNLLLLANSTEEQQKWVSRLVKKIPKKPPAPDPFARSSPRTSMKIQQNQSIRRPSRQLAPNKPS

Row | Compound | IC50
1 | COc1ccc2c(c1)CCc1sc(NC(=O)Cc3ccc(Oc4ncccc4C(N)=O)c(F)c3)nc1-2 [Example 001, 2-(2-fluoro-4-(2-((7-methoxy-4,5-dihydronaphtho[1,2-d]thiazol-2-yl)amino)-2-oxoethyl)phenoxy)nicotinamide] | 10 nM
2 | NC(=O)c1cccnc1Oc1ccc(CC(=O)Nc2nc3cc(-c4cnn(C(F)F)c4)ccc3s2)cc1F [Example 029, 2-(4-(2-((5-(1-(difluoromethyl)-1H-pyrazol-4-yl)benzo[d]thiazol-2-yl)amino)-2-oxoethyl)-2-fluorophenoxy)nicotin-amide] | 9 nM
3 | Cc1cccc(Nc2ncnc3ccc(NC(=O)Cc4ccc(Oc5ncccc5C(N)=O)cc4)cc23)c1 [Example 077, 2-(4-(2-oxo-2-((4-(m-tolylamino)quinaz-olin-6-yl)amino)ethyl)phe-noxy)nicotinamide] | 42 nM
4 | Cn1cc(-c2ccc3sc(NC(=O)Cc4ccc(Oc5ncccc5C(N)=O)c(F)c4)nc3c2)c(C2CC2)n1 [Example 026, 2-(4-(2-((5-(3-cyclopropyl-1-methyl-1H-pyrazol-4-yl)benzo[d]thiazol-2-yl)amino)-2-oxoethyl)-2-fluorophenoxy)nicotin-amide] | 8 nM
5 | Cn1nc(NC(=O)Cc2ccc(Oc3ncccc3C(N)=O)cc2)c2ccccc21 [Example 075, 2-(4-(2-((1-methyl-1H-indazol-3-yl)amino)-2-oxoethyl)phenoxy) nicotinamide] | 534 nM
6 | Cc1sc(NC(=O)Cc2ccc(Oc3ncccc3C(N)=O)c(Cl)c2)nc1-c1ccccc1F [Example 080, 2-(2-chloro-4-(2-((4-(2-fluorophenyl)-5-methylthiazol-2-yl)amino)-2-oxoethyl)phenoxy) nicotinamide] | 15 nM

Second part, the molecule after the results:

Row | IC50 | Compound
7 | 25 nM | NC(=O)c1cccnc1Oc1ccc(CC(=O)Nc2nc3cc(-c4cnn(C(F)F)c4)ccn3n2)cc1F [Example 135, 2-(4-(2-((7-(1-(difluoro-methyl)-1H-pyrazol-4-yl)-[1,2,4]-triazolo[1,5-a]pyridin-2-yl)amino)-2-oxoethyl)-2-fluorophen-oxy)nicotin-amide]
8 | 44 nM | NC(=O)c1cccnc1Oc1ccc(CC(=O)Nc2nc3cc(Br)ccn3n2)cc1F [Example 134, 2-(4-(2-((7-bromo-[1,2,4]triazolo[1,5-a]pyridin-2-yl)amino)-2-oxoethyl)-2-fluorophenoxy)nicotinamide]
9 | 18 nM | COc1ccc2nc(NC(=O)Cc3ccc(Oc4ncccc4C(N)=O)c(F)c3)n(CC(F)F)c2c1 [Example 123, 2-(4-(2-((1-(2,2-difluoroethyl)-6-methoxy-1H-benzo-[d]imidazol-2-yl)-amino)-2-oxoethyl)-2-fluorophenoxy)-nicotinamide]
10 | 465 nM | CP(C)(=O)c1ccc2nc(NC(=O)Cc3ccc(Oc4ncccc4C(N)=O)c(F)c3)n(CC(F)F)c2c1 [Example 150, 2-(4-(2-((1-(2,2-difluoroethyl)-6-(dimethylphosphoryl)-1H-benzo[d]imidazol-2-yl)amino)-2-oxo-ethyl)-2-fluoro-phenoxy)nicotinamide]
11 | 147 nM | CP(C)(=O)c1ccc2c(c1)nc(NC(=O)Cc1ccc(Oc3ncccc3C(N)=O)c(F)c1)n2CC(F)(F)F [Example 148, 2-(4-(2-((5-(dimethyl-phosphoryl)-1-(2,2,2-trifluoroethyl)-1H-benzo[d]imidazol-2-yl)amino)-2-oxoethyl)-2-fluorophenoxy)-nicotinamide]
12 | 40 nM | CC(C)(O)COc1ccc2c(c1)CCc1sc(NC(=O)Cc3ccc(Oc4ncccc4C(N)=O)cc3)nc1-2 [Example 108, 2-(4-(2-((7-(2-hydroxy-2-methylpropoxy)-4,5-dihydronaphtho[1,2-d]thiazol-2-yl)amino)-2-oxoethyl)phenoxy)nicotinamide]
13 | 37 nM | NC(=O)c1cccnc1Oc1ccc(CC(=O)Nc2nc3ccccc3n2CC(F)F)cc1F [Example 111, 2-(4-(2-((1-(2,2-difluoroethyl)-1H-benzo[d]imidazol-2-yl)amino)-2-oxoethyl)-2-fluorophenoxy)nicotinamide]

— patent US11306081B2, “Phenylacetamides as inhibitors of rock” (BRISTOL-MYERS SQUIBB COMPANY, priority 2017, dated 2022)
